Structures are written as SMILES.

Results on one molecule are retold here after publication PMC8191290, “Substrate specificities and reaction kinetics of the yeast oligosaccharyltransferase isoforms” (The Journal of Biological Chemistry, 2021).

The target of this assay is T1, OST3 complex (Saccharomyces cerevisiae, UniProt P39007).
T1 construct: were purified separately from strains expressing only one type of complex; made in house; host or cells: Saccharomyces cerevisiae, BY4742-derived strain ost6::LEU2MX6 OST4-1D4::kanMX6 YEp352-OST3
Nature of the assay: Synthetic LLO preferences, OST3 complex. The format is biochemical. The note with it: OST3 complex 0.09 μM, 25 μM TAMRA-YANATS, 50 μM LLO; n = 3. As for the experimental part:
Figure 5 OST3 complex turns over both glycosylation substrates faster than the OST6 complex, but with similar substrate affinities.A, enzyme activity of OST3 and OST6 complexes. Reactions were performed with 25 μM peptide TAMRA-YANATS, 50 μM LLO C20, and varying concentrations of purified OST3 complex (blue) or OST6 complex (red). Glycopeptide product was measured by UPLC and initial rates of reaction were determined by linear regression of the initial phase of the reaction. Turnover rates were determined by linear regression of the initial rates of reaction measured across the enzyme concentrations of 0.01–0.1 μM for OST3 complex and 0.1–0.5 μM for OST6 complex. Error bars indicate standard deviations from the mean of three reaction sets (n = 3). B, synthetic LLO preferences of OST3 and OST6 complexes. […] Turnover rates were determined by linear regression of the initial phase of the reaction and accounting for the enzyme concentration in the reaction. […] C, quantification of kinetic parameters for the synthetic LLO C20. […] Turnover rates were determined by linear regression of the initial phase of the reaction and accounting for the enzyme concentration in the reaction. […] D, quantification of kinetic parameters for the peptide TAMRA-YANATS. […] Turnover rates were determined by linear regression of the initial phase of the reaction and accounting for the enzyme concentration in the reaction. […]

Consider `CC(=O)N[C@H]1[C@@H](OP(=O)(O)OP(=O)(O)OC/C=C(\C)CC/C=C(\C)CCC=C(C)C)O[C@H](CO)[C@@H](O[C@@H]2O[C@H](CO)[C@@H](O)[C@H](O)[C@H]2NC(C)=O)[C@@H]1O` [LLO C15], for which the “turnover rate ranking among LLO analogs” value is given as “lowest reaction rates”.
